Read-outs that look alike come from different tables or passages of the source.
Columns and labels:
[1] = Analytical RP-HPLC retention time on C-18 column as indicator of polarity; type: physicochemical; conditions: chromatographic, YMC-Pack ODS-A C18 (5 µm, 120 Å) 150 × 4.6 mm; gradient 5% B 2 min, 5%–100% B 20 min; A 0.1% TFA in water, B 0.1% TFA in acetonitrile/water 80/20; 1 mL/min; UV 220 nm
Excerpt: Cationic membrane active peptides and their INH-derivatives were synthesized in good yields, using previously described methods. Peptides were characterized with their monoisotopic molecular mass (M), retention time on a C-18 RP-HPLC column (Rt), estimated hydrophilicity values (H) and net charge (z) (see Table 1). Peptides are listed according to their retention times, which are the indicator of their polarity. […] This order of peptides’ polarity is almost equal to the relative hydrophilicity estimated from the amino acid composition. […] That might be the result of decreased charge due to INH coupling at the N-terminal, although the addition of INH molecule is expected to increase the polarity of the conjugate.
Purified peptides were analyzed by RP-HPLC, on an analytical C-18 column, using gradient elution with the abovementioned eluent A and B (flow rate was 1 mL/min, UV detection at λ = 220 nm). Molecular mass of the peptides was determined on a Thermo Scientific Q Exactive™ Focus Hybrid Quadrupole-Orbitrap™ Mass Spectrometer (ThermoFisher Scientific, Waltham, MA, USA).

[2] = AFM imaging of penetrated DPPC lipid layer; type: physicochemical; conditions: DPPC monolayer, AFM cross-section profiles
Excerpt: At the end of the membrane affinity measurements, the penetrated monolayers were transferred to a previously cleaned cover glass, to study the structural changes of the membranes by atomic force microscopy (Figure 5 and Figure 6). The surface of the original DPPC and mixed DPPC+mycolic acid monolayer is rather smooth, with a morphology described by typical roughness values presented in Table 2. (Ra is the average deviation of all points from a mean level over the evaluation area. Rq (RMS) is the root mean square roughness, while Rz is the average absolute value of the five highest peaks and the five lowest valleys over the evaluation area, being sensitive to positive or negative extremes of the image.) Well-defined homogenous lipid islands are formed by the ordered lipid molecules in equilibrium with the less-oriented film with smaller surface density as expected from the surface pressure–area isotherm. Comparing to this, the morphology of the penetrated monolayers was changed. The 3D images provide a visual impression on the surface, while the cross-section profiles allow the measurement of the height differences. […] This morphological change can also be expressed by the roughness factors determined by analyzing the AFM images (Table 2).
Penetrated Langmuir monolayers were transferred to a previously cleaned hydrophilic cover glass for atomic microscopy measurements. […]

[3] = AFM imaging of penetrated DPPC+mycolic acid lipid layer; type: physicochemical; conditions: DPPC+mycolic acid film, AFM cross-section profiles
[4] = tested on: Mycobacterium tuberculosis H37Rv in infected MonoMac-6 human monocytes; type: cell-based
EBC-1 cells = type: cell-based, human

Substance	Rt, retention time on C-18 RP-HPLC column (indicator of polarity) [1]	other results
CM15	13.7	–
GIGKFLHSAKKFGKAFVGEIMNS [Magainin II, antimicrobial peptide isolated from amphibians]	12.8	–
INH-GIGKFLHSAKKFGKAFVGEIMNS [INH–Magainin II, isoniazid conjugated to the N-terminus of Magainin II via glyoxylic acid linker]	13.3	–
INH-KRLFKKLLFSLRKY [INH–Dhvar4, isoniazid conjugated to the N-terminus of Dhvar4 via glyoxylic acid linker]	12.8	–
INH-RAGLQFPVGRVHRLLRK [INH–Buforin II (5–21), isoniazid conjugated to the N-terminus of Buforin II (5–21) via glyoxylic acid linker]	11.0	–
INH-RQIKIWFQNRRMKWKK [INH–Penetratin, isoniazid conjugated to the N-terminus of Penetratin via glyoxylic acid linker]	11.5	Height of aggregates / protrusions in penetrated layer [2]: 1–3 nm; Height of aggregates / vertical deviation in penetrated layer [3]: exceeding 3 nm; Intracellular antitubercular activity [4]: efficient candidate against intracellular Mycobacterium tuberculosis
INH-TKPKGTKPKGTKPKGTKPKG [INH–OT20, isoniazid conjugated to the N-terminus of OT20 via glyoxylic acid linker]	7.0	–
KRLFKKLLFSLRKY [Dhvar4, synthetic derivative of Histatin, a salivary histidine-rich cationic AMP]	11.8	–
RAGLQFPVGRVHRLLRK [Buforin II (5–21), antimicrobial peptide isolated from amphibians]	10.9	–
RQIKIWFQNRRMKWKK [Penetratin, cell-penetrating peptide]	10.9	Subcellular localization (EBC-1 cells; Cf-labeled peptides, 60 min incubation, EBC-1 cells, confocal microscopy): diffused intracellular distribution
TKPKGTKPKGTKPKGTKPKG [OT20, synthetic oligomer of Tuftsin, cationic carrier peptide]	6.7	–
Transportan	–	Subcellular localization (EBC-1 cells): mostly vesicular localization

Source: paper PMC7139830, “Drug Conjugation Induced Modulation of Structural and Membrane Interaction Features of Cationic Cell-Permeable Peptides” (International Journal of Molecular Sciences, 2020)
